The source made the active and inactive calls.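 The calls were made as follows: active = compounds giving half or more protection of infected cells from virus-caused growth loss, again on retest; inactive = the rest.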
Tested on: CEM cells HIV-1 protection, formazan growth assay
Assay: NCI AIDS Antiviral Assay
Conditions: for IC50: measured here: growth of uninfected CEM cells
In short: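 Category rules: moderately active means at least 50% protection on retest, and confirmed active means 100% protection reproducibly. The underlying data came from a formazan growth assay in HIV-1-infected CEM cells.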

SMILES	EC50	IC50	outcome
O=C(O)c1ccccc1C(=O)OC1CC2CCC1C2 (stereo not drawn)	> 200 µM	> 200 µM	
C[n+]1c(-c2ccc(/C=N/Nc3ccnc(N/N=C/c4ccc(-c5cn6ccccc6[n+]5C)cc4)n3)cc2)cn2ccccc21	4.68 µM	9.77 µM	
COc1ccc(Cn2nc(OCc3ccccn3)c3cc([N+](=O)[O-])ccc32)cc1	> 200 µM	> 200 µM	
O=C(/C=C/c1c(O)ccc2ccccc12)c1ccc2ccccc2c1	> 112 µM	> 112 µM	
CCC(=O)C(CCN1CCC2(CCCc3ccccc32)CC1)(c1ccccc1)c1ccccc1	> 200 µM	6.61 µM	
COc1ccc(N2C(=O)[C@H]3CC(C)c4c([nH]c5ccccc45)[C@H]3C2=O)cc1 (stereo partly drawn)	> 41.7 µM	0.871 µM	
CC1(C)C(=O)C(C)(C)C1=S	> 219 µM	> 219 µM	
CC(C)=[CH][Sb]([Br])([CH]=C(C)C)([CH]=C(C)C)[CH]=C(C)C	> 589 µM	3.02 µM	
Cc1c(Cl)ccc2[s+]snc12			inactive
O=C1Oc2ccccc2C(=O)/C1=C/N1C(=O)N/C(=C\c2cccc(O)c2)C1=O	> 200 µM	148 µM	
CC(Cc1ccccc1)Nc1ncnc2c1ncn2C1OC(CO)CC1O (stereo not drawn)			inactive
C[n+]1c2ccccc2c(NC(CS)C(=O)O)c2ccccc21 (stereo not drawn)			inactive
Cc1ccc(S(=O)(=O)C2CC3CC2C2COCC32)cc1 (stereo not drawn)	> 75.9 µM	> 75.9 µM	
COc1cccc(N2C(=O)C3c4[nH]c5ccc(C)cc5c4C4CCC(C(C)(C)C)CC4C3C2=O)c1 (stereo not drawn)	> 200 µM	9.55 µM	
O=c1[nH]nc(-c2ccccc2)n1/N=C/c1ccccc1O	> 200 µM	115 µM	
CO/C(N)=C(\C#N)N=Cc1ccsc1	> 200 µM	126 µM	
CC1(C)CC(=O)C2=C(C1)Nc1ccc(Cl)cc1NC2c1cccc([N+](=O)[O-])c1 (stereo not drawn)	> 200 µM	102 µM	
CN1C(=Nc2ccccc2)SC1=Nc1ccccc1			inactive

SMILES	EC50	IC50	outcome
COc1ccccc1C1SC(c2ccccc2)(c2ccccc2)OC1=O (stereo not drawn)	> 3.98 µM	> 3.98 µM	
O=C(OCCOC(=O)c1ccc2c(c1)C1(SCCS1)c1ccccc1-2)c1ccc2c(c1)C1(SCCS1)c1ccccc1-2	> 30.2 µM	> 30.2 µM	
COc1ccc(N2C(=O)C3c4[nH]c5ccc(OC)cc5c4C4CCC(C(C)(C)C)CC4C3C2=O)cc1 (stereo not drawn)	> 14.8 µM	> 14.8 µM	
Cc1cc(S(=O)(=O)NC2=NC(c3ccccc3)c3cc(Cl)ccc3N2)c(S)cc1Cl (stereo not drawn)	> 200 µM	> 200 µM	
O/N=C(/CC(O)(C(F)(F)F)C(F)(F)F)c1ccccc1	> 200 µM	> 200 µM	
COc1cc(OC)c(C(=O)/C=C/c2ccc(OC)c(OC)c2)c(OC)c1			inactive
Nc1cc(=O)[nH]c(N)n1			inactive
COc1ccc(/C(CC2OC(=O)c3ccccc32)=N\NC(=O)C[N+](C)(C)C)cc1 (stereo not drawn)	> 77.6 µM	24 µM	
Cc1ccc(/C([O-])=C(\C(=S)Nc2cccc(C(F)(F)F)c2)[n+]2ccccc2)cc1	> 200 µM	89.1 µM	
CCN(CC)C1CCC(C2c3cc4c(cc3OC(N3CCOCC3)C2C)OCO4)CC1 (stereo not drawn)	> 100 µM	5.89 µM	
Cc1ccc(C)c2c1C(=O)N(c1ccccc1)C2=O	> 200 µM	> 200 µM	
OC(C#CCN1CCCC1)(c1ccccc1)c1ccc(F)cc1.[C-]#[O+].[C-]#[O+].[C-]#[O+].[C-]#[O+].[C-]#[O+].[C-]#[O+].[Co].[Co] (stereo not drawn)	> 200 µM	7.41 µM	
Clc1ccc(C2SCc3nc4ccccc4n32)cc1 (stereo not drawn)			inactive
Nc1nc(Cl)c(N)c(NCC2(CO)CCC2)n1	> 200 µM	115 µM	
C=CCc1cc(OC)c2c(c1)C(OC)CC(c1ccc(OC)c(OC)c1)O2 (stereo not drawn)	> 251 µM	> 251 µM	
N/C(=N\NS(=O)(=O)c1ccccc1)Oc1ccc(Cl)cc1	> 398 µM	339 µM	
CCCCSc1cc(Cc2cc(C)ccc2O)c(O)c(Cc2cc(C)ccc2O)c1	> 200 µM	10 µM	

Reference: PubChem BioAssay AID179 (DTP/NCI, 2004)
